Measured values: patent EP1166644A1, “Enzymatic biodegradation of halogenated compounds” (priority 2000, dated 2002)

System: baker's yeast
Assay: Bioconversion (biodegradation) assay with baker's yeast
Format: cell-based, Saccharomyces caerevisae (baker's yeast)
Experimental: Biodegradation assays were carried out according to the following steps: • Step 1. Culture of microorganisms: The microorganisms studied were allowed to grow on a defined medium, in order to increase biomass and develop possible enzymatic activity. • Step 2. Bioconversion assay: The desired amount of 3-MCPD was added to the reactor, and samples were withdrawn at different reaction time to follow the kinetics of biodegradation. • Step 3. Centrifugation: Samples withdrawn from the mixture were centrifuged, the pellet was discarded and the supernatant was used for further treatment and analysis. • Step 4. Extraction of 3-MCPD: 3-MCPD was extracted from the supernatant using Extrelut columns or the Accelerated Solvent Extractor method, and partitioned into ethyl acetate. • Step 5. Preparation of samples for analysis: The organic phase was concentrated with a rotary evaporator, and transferred to a vial, containing an internal standard (3-monochloro-1-propanol (3-MCP) or 3-MCPD-d5). • Step 6. Analysis: Final detection and monitoring of substrate was accomplished by gas chromatography techniques (GC or GC-MS).
Conditioning of baker's yeast: 60g active dry baker's yeast was added to 300 g distilled water under magnetic stirring for 20 min at room temperature. The yeast cream was then centrifuged at 5000 rpm for 15 min, at 4°C (Beckman Model J2-21M Centrifuge) and supernatant was discarded. The pellet was resuspended in equivalent amount (225ml) of distilled water. The obtained yeast cream solution (pH 5.8) was then used for bioconversion assays.
Bioconversion assay: 150 g of the yeast cream solution obtained as described above was placed in a 200 ml reactor vessel equipped with an electrode and a magnetic stirrer (500 rpm). The flask was kept at 28°C using an oil bath equipped with a thermostat (Heidolph MR 3003), and pH was adjusted to the desired pH condition (pH 6.2, pH 7.0, or pH 8.2) with 2M NaOH solution.
[…] The pH was automatically maintained throughout the reaction with regular adjunction of 2M NaOH (Metrohm 691 pH-Meter, equipped with Metrohm Impulsomat 614 and Dosimat 665).
Aliquots of 6 ml were withdrawn from the reaction mixture at different incubation times and centrifuged at 3000 rpm, during 4 min, at 25°C (Beckman Model TJ6 Centrifuge). The pellet was discarded, and the supernatant absorbed onto an Extrelut 3 column or hydromatrix column (placed in the Accelerated Solvent Extractor). 3-MCPD was then partitioned into ethyl acetate, volume was reduced to 2 ml by rotary evaporation, and transferred to a 10 ml graduated tube. 1ml of the internal standard (3-MCP or 3-MCPD-d5) was added to the vial and made up to volume with ethyl acetate. Finally, the extract was dried over anhydrous sodium sulfate, and analyzed for 3-MCPD content by gas chromatography (GC or GC-MS).
The study of 3-MCPD biodegradation by baker's yeast was made by varying different parameters and measuring their influence on the yield and rate of 3-MCPD degradation. The effect of the following parameters were studied: • pH 6.2, 7.0 and 8.2 • presence of glucose in the reaction mixture • substrate stereospecificity: (R)-and (S)-enantiomers • substrate concentration: 800 ppb and 3000 ppm
The results of the biodegradation assays are reported as a percentage of conversion of 3-MCPD as function of reaction time.
Final conversion values were referred to 48h reaction time in order to compare the different biodegradation assays performed. Comparison of bioconversions after 48 h reaction time has been chosen in respect of the enzymatic nature of the reaction studied (many non-enzymatic reactions could occur in a longer time frame).
A control vial (reaction medium with substrate, but without microorganism) was run alongside the reaction. This control permitted the subtraction of the non-enzymatic conversion of 3-MCPD under the experimental conditions tested. […]

[1] = 3000 ppm, pH 8.2, 28°C, without glucose
[2] = 800 ppb, pH 8.2, 28°C, without glucose
[3] = 3000 ppm, pH 6.2, 28°C, without glucose
[4] = 3000 ppm, pH 7.0, 28°C, without glucose

Row | SMILES | Biodegradation of 3-MCPD with baker's yeast, After 24 h [1] | Biodegradation of 3-MCPD with baker's yeast, After 48 h [1] | Biodegradation of 3-MCPD with baker's yeast, After 24 h [2] | Biodegradation of 3-MCPD with baker's yeast, After 24 h (800 ppb, pH 8.2, 28°C, without glucose, listed as racemic 3-MCPD) | Biodegradation of 3-MCPD with baker's yeast, After 48 h [2] | highest conversion (2000 ppm, pH 8.2, in the presence of glucose, after 24h reaction) | Biodegradation of 3-MCPD with baker's yeast, After 24 h [3] | Biodegradation of 3-MCPD with baker's yeast, After 48 h [3] | Biodegradation of 3-MCPD with baker's yeast, After 24 h [4] | Biodegradation of 3-MCPD with baker's yeast, After 48 h [4] | Biodegradation of 3-MCPD with baker's yeast, After 48 h (3000 ppm, pH 8.2, 28°C, without glucose, listed as 3-MCPD) | Biodegradation of 3-MCPD with baker's yeast, After 48 h (3000 ppm, pH 8.2, 28°C, without glucose, listed as racemic 3-MCPD) | Biodegradation of 3-MCPD with baker's yeast, After 24 h (3000 ppm, pH 8.2, + glucose) | Biodegradation of 3-MCPD with baker's yeast, After 48 h (3000 ppm, pH 8.2, + glucose)
1 | OC[C@H](O)CCl [(S)-3-MCPD, (S)-(+)-3-monochloro-1,2-propanediol] | 55% | 85% | – | – | – | – | – | – | – | – | – | – | – | –
2 | OC[C@@H](O)CCl [(R)-3-MCPD, (R)-(-)-3-monochloro-1,2-propanediol] | 20% | 60% | – | – | – | – | – | – | – | – | – | – | – | –
3 | OCC(O)CCl (racemic) [(R,S)-3-MCPD, 3-Monochloro-1,2-propanediol] | 26% | 45% | 50% | about 50% | 70% | 60% | 8% | 12% | 20% | 35% | 45% | about 50% | 60% | 68%
